In brackets after ≈: the same amount, converted by molar mass.
Legend:
Trichoderma viride = assay: MIC in beerwort/peptone agar, Trichoderma viride; type: cell-based; conditions: 28° C., 60 to 70% relative humidity, 2 weeks; for MIC: Trichoderma viride, 336 h
Protocol: (§1) Active compounds according to the invention are added in concentrations of 0.1 mg/1 to 5,000 mg/1 to an agar prepared from beerwort and peptone. After storage at 28° C. and 60 to 70% relative atmospheric humidity for 2 weeks, the MIC is determined. The MIC is the lowest concentration of active compound at which no growth at all by the species of microbes used takes place, and is given in Table 1.

Coniophora puteana = assay: MIC in beerwort/peptone agar, Coniophora puteana; type: cell-based; conditions: 28° C., 60 to 70% relative humidity, 2 weeks; for MIC: Coniophora puteana, 336 h
Protocol: as §1

Polyporus versicolor = assay: MIC in beerwort/peptone agar, Polyporus versicolor; type: cell-based; conditions: 28° C., 60 to 70% relative humidity, 2 weeks; for MIC: Trametes versicolor, 336 h
Protocol: as §1

Aspergillus niger = assay: MIC in beerwort/peptone agar, Aspergillus niger; type: cell-based; conditions: 28° C., 60 to 70% relative humidity, 2 weeks; for MIC: Aspergillus niger, 336 h
Protocol: as §1

Alternaria tenuis = assay: MIC in beerwort/peptone agar, Alternaria tenuis; type: cell-based; conditions: 28° C., 60 to 70% relative humidity, 2 weeks; for MIC: Alternaria alternata, 336 h
Protocol: as §1

Chaetomium globosum = assay: MIC in beerwort/peptone agar, Chaetomium globosum; type: cell-based; conditions: 28° C., 60 to 70% relative humidity, 2 weeks; for MIC: Chaetomium globosum, 336 h
Protocol: as §1

Aureobasidium pullulans = assay: MIC in beerwort/peptone agar, Aureobasidium pullulans; type: cell-based; conditions: 28° C., 60 to 70% relative humidity, 2 weeks; for MIC: Aureobasidium pullulans, 336 h
Protocol: as §1

slime organisms = assay: MIC against slime organisms in Allens nutrient solution; type: cell-based; conditions: 504 h, about 10^6 germs/ml, 3 weeks at room temperature
Protocol: Compounds according to the invention are used in concentrations of in each case 0.1 to 100 mg/l in Allens nutrient solution (Arch. Mikrobiol. 17, 34 to 53 (1952)), which contains, in 4 l of sterile water, 0.2 g of ammonium chloride, 4.0 g of sodium nitrate, 1.0 g of dipotassium hydrogen phosphate, 0.2 g of calcium chloride, 2.05 g of magnesium sulphate, 0.02 g of iron chloride and 1% of caprolactam, dissolved in a little acetone. Shortly beforehand, the nutrient solutions are infected with slime organisms (about 10^6 germs/ml), which have been isolated from the spinning water circulations used in the production of polyamide. Nutrient solutions which contain the minimum inhibitory concentration (MIC) or higher concentrations of active compound are still completely clear after culture for 3 weeks at room temperature, that is to say the pronounced reproduction of the microbes and slime formation noticeable after 3 to 4 days in nutrient solutions containing no active compounds are absent.

Penicillium glaucum = assay: MIC in beerwort/peptone agar, Penicillium glaucum; type: cell-based; conditions: 28° C., 60 to 70% relative humidity, 2 weeks; for MIC: Penicillium, 336 h
Protocol: as §1

Sclerophoma pityophila = assay: MIC in beerwort/peptone agar, Sclerophoma pityophila; type: cell-based; conditions: 28° C., 60 to 70% relative humidity, 2 weeks; for MIC: Sydowia polyspora, 336 h
Protocol: as §1

Lentinus tigrinus = assay: MIC in beerwort/peptone agar, Lentinus tigrinus; type: cell-based; conditions: 28° C., 60 to 70% relative humidity, 2 weeks; for MIC: Lentinus tigrinus, 336 h
Protocol: as §1

[1] = Water solubility of potassium salt; type: physicochemical
Protocol: 12.3 g (0.05 mole) of 2-(1H-pyrazol-1-yl)-6-chloro-4(3H)-quinazolinone (=compound from Example 4) are stirred in 1 liter of water with 45 ml of 1 N KOH for 1 hour. Residues of the starting material which have remained undissolved are removed, the clear solution is evaporated in vacuo and the solid residue is dried at 110° C. to give 12.2 g of water-soluble potassium salt of the quinazolinone employed.

fungi = assay: Mould resistance of PVA emulsion paint films (paint fungicide test, Report 219 Defense Standards Laboratories); conditions: 28° to 30° C., 90 to 95% relative humidity, evaluated after 3 weeks; active compound E: even after ageing
Protocol: Testing is carried out in accordance with the method in Report 219 of the Defense Standards Laboratories Maribyrnong/Australia as follows: a smooth card is coated on both sides with the paint to be tested and is dried at room temperature for 8 days. For ageing, part of the paint film is kept in running water of 24° for 24 hours, or aerated with fresh air of 40° to 60° C. for 8 days, or subjected to a dry Xenon test for 110 hours. Pieces of 5×5 cm cut out from the samples thus prepared are placed individually on a glucose nutrient medium in Petri dishes and contaminated with a spore suspension of the following fungi: Aspergillus niger, Aureobasidium pullulans, Alternaria tenuis, Penicillium citrinum, Stachybotrys atra, Paecilomyces varioti, Cladosporium herbarum, Aspergillus ustus and Aspergillus flavus.
The contaminated dishes are stored at 28° to 30° C. and 90 to 95% relative atmospheric humidity, and are evaluated after 3 weeks. Paint films are regarded as mould-resistant if the samples remain free from fungi after these tests.
A commercially available emulsion paint based on PVA is tested for mould resistance by the test method described above.

[2] = system: microbes (bacteria, yeasts and moulds); assay: Preservation of cooling lubricant use dilutions; conditions: 3-5% strength use dilutions, contaminated each day for 3 months; 3% preservative in cooling lubricant
Protocol: 3% of a preservative composed of 90% of benzyl alcohol mono(poly)hemiformaland 10% of active compound E is added to a cooling lubricant based on mineral oil.
3-5% strength use dilutions of the cooling lubricant are contaminated massively each day for 3 months with microbes (bacteria, yeasts and moulds) isolated from microbially decayed cooling lubricant use dilutions.

## O=c1[nH]c(-n2cccn2)nc2ccccc12 [Active compound A, 2-(1H-Pyrazol-1-yl)-4-(3H)-quinazolinone]
Trichoderma viride
  MIC: 100 µg/mL (≈ 471 µM)
Coniophora puteana
  MIC: 1 µg/mL (≈ 4.71 µM)
Polyporus versicolor
  MIC: 20 µg/mL (≈ 94.2 µM)
Aspergillus niger
  MIC: 100 µg/mL (≈ 471 µM)
Alternaria tenuis
  MIC: 20 µg/mL (≈ 94.2 µM)
Chaetomium globosum
  MIC: 100 µg/mL (≈ 471 µM)
Aureobasidium pullulans
  MIC: 5 µg/mL (≈ 23.6 µM)
Slime organisms
  MIC: 30 µg/mL (≈ 141 µM)
Penicillium glaucum
  MIC: 100 µg/mL (≈ 471 µM)
Sclerophoma pityophila
  MIC: 20 µg/mL (≈ 94.2 µM)
Lentinus tigrinus
  MIC: 20 µg/mL (≈ 94.2 µM)

## Cc1cnn(-c2nc3ccccc3c(=O)[nH]2)c1 [Active compound B, 2-(4-Methyl-1H-pyrazol-1-yl)-4(3H)-quinazolinone]
Trichoderma viride
  MIC: 50 µg/mL (≈ 221 µM)
Polyporus versicolor
  MIC: < 10 µg/mL
Aspergillus niger
  MIC: 50 µg/mL (≈ 221 µM)
Alternaria tenuis
  MIC: 75 µg/mL (≈ 332 µM)
Chaetomium globosum
  MIC: < 20 µg/mL
Aureobasidium pullulans
  MIC: 10 µg/mL (≈ 44.2 µM)
Penicillium glaucum
  MIC: 7 µg/mL (≈ 30.9 µM)
Sclerophoma pityophila
  MIC: 50 µg/mL (≈ 221 µM)
Lentinus tigrinus
  MIC: < 10 µg/mL

## Cc1ccn(-c2nc3ccccc3c(=O)[nH]2)n1 [Active compound C, 2-(3-Methyl-1H-pyrazol-1-yl)-4(3H)-quinazolinone]
Trichoderma viride
  MIC: 50 µg/mL (≈ 221 µM)
Coniophora puteana
  MIC: < 0.1 µg/mL
Polyporus versicolor
  MIC: 35 µg/mL (≈ 155 µM)
Aspergillus niger
  MIC: 35 µg/mL (≈ 155 µM)
Alternaria tenuis
  MIC: 15 µg/mL (≈ 66.3 µM)
Chaetomium globosum
  MIC: 5 µg/mL (≈ 22.1 µM)
Aureobasidium pullulans
  MIC: 50 µg/mL (≈ 221 µM)
Slime organisms
  MIC: 100 µg/mL (≈ 442 µM)
Penicillium glaucum
  MIC: 75 µg/mL (≈ 332 µM)
Sclerophoma pityophila
  MIC: 10 µg/mL (≈ 44.2 µM)
Lentinus tigrinus
  MIC: 20 µg/mL (≈ 88.4 µM)

## Cc1ccnn1-c1nc2ccccc2c(=O)[nH]1 [Active compound D, 2-(5-Methyl-1H-pyrazol-1-yl)-4(3H)-quinazolinone]
Trichoderma viride
  MIC: 50 µg/mL (≈ 221 µM)
Coniophora puteana
  MIC: < 0.1 µg/mL
Polyporus versicolor
  MIC: 15 µg/mL (≈ 66.3 µM)
Aspergillus niger
  MIC: 35 µg/mL (≈ 155 µM)
Alternaria tenuis
  MIC: 15 µg/mL (≈ 66.3 µM)
Chaetomium globosum
  MIC: 5 µg/mL (≈ 22.1 µM)
Aureobasidium pullulans
  MIC: 35 µg/mL (≈ 155 µM)
Slime organisms
  MIC: 75 µg/mL (≈ 332 µM)
Penicillium glaucum
  MIC: 35 µg/mL (≈ 155 µM)
Sclerophoma pityophila
  MIC: 50 µg/mL (≈ 221 µM)
Lentinus tigrinus
  MIC: 20 µg/mL (≈ 88.4 µM)

## CCc1cnn(-c2nc3ccccc3c(=O)[nH]2)c1 [Active compound F, 2-(4-Ethyl-1H-pyrazol-1-yl)-4(3H)-quinazolinone]
Trichoderma viride
  MIC: 50 µg/mL (≈ 208 µM)
Polyporus versicolor
  MIC: 30 µg/mL (≈ 125 µM)
Aspergillus niger
  MIC: 50 µg/mL (≈ 208 µM)
Chaetomium globosum
  MIC: < 20 µg/mL
Aureobasidium pullulans
  MIC: 50 µg/mL (≈ 208 µM)
Slime organisms
  MIC: 30 µg/mL (≈ 125 µM)
Penicillium glaucum
  MIC: 35 µg/mL (≈ 146 µM)
Sclerophoma pityophila
  MIC: 50 µg/mL (≈ 208 µM)
Lentinus tigrinus
  MIC: 20 µg/mL (≈ 83.2 µM)

## Cc1cnn(-c2nc3ccc(Cl)cc3c(=O)[nH]2)c1 [Active compound G, 2-(4-Methyl-1H-pyrazol-1-yl)-6-chloro-4-(3H)-quinazolinone]
Coniophora puteana
  MIC: 1 µg/mL (≈ 3.84 µM)
Chaetomium globosum
  MIC: 1 µg/mL (≈ 3.84 µM)
Penicillium glaucum
  MIC: 7 µg/mL (≈ 26.9 µM)
Sclerophoma pityophila
  MIC: 5 µg/mL (≈ 19.2 µM)

## O=c1[nH]c(-n2cccn2)nc2cc(Cl)ccc12 [Active compound H, 2-(1H-Pyrazol-1-yl)-7-chloro-4(3H)-quinazolinone]
Slime organisms
  MIC: 100 µg/mL (≈ 405 µM)

## O=c1[nH]c(-n2cccn2)nc2ccc(Cl)cc12 [Example 32, 2-(1H-pyrazol-1-yl)-6-chloro-4(3H)-quinazolinone]
[1]
  water solubility (in words): water-soluble

## CN(C)C(=S)SSC(=S)N(C)C [tetramethylthiuram disulphide, reference compound]
fungi
  content of fungicide at which PVA emulsion paint films are mould-resistant: ≥ 4%

## Isomer mixture of 2-(3- and 5-methyl-1H-pyrazol-1-yl)-4(3H)-quinazolinone [Active compound E]
Trichoderma viride
  MIC value, Trichoderma viride: 75 µg/mL
fungi
  content of fungicide at which PVA emulsion paint films are mould-resistant: 0.5%
Coniophora puteana
  MIC value, Coniophora puteana: 1 µg/mL
Polyporus versicolor
  MIC value, Polyporus versicolor: 35 µg/mL
Aspergillus niger
  MIC value, Aspergillus niger: 50 µg/mL
Alternaria tenuis
  MIC value, Alternaria tenuis: 75 µg/mL
Chaetomium globosum
  MIC value, Chaetomium globosum: 3 µg/mL
Aureobasidium pullulans
  MIC value, Aureobasidium pullulans: 15 µg/mL
Penicillium glaucum
  MIC value, Penicillium glaucum: 35 µg/mL
Sclerophoma pityophila
  MIC value, Sclerophoma pityophila: 2 µg/mL
Lentinus tigrinus
  MIC value, Lentinus tigrinus: 20 µg/mL

## benzyl alcohol mono(poly)hemiformal
[2]
  state of cooling lubricant use dilutions at the end of the testing period: show attack by mould at the end of the testing period
